Test results published in patent US5856517A, “Substituted pyrroles” (Hoffmann-La Roche Inc., priority 1997, dated 1999).

How the values were obtained:
[1] = system: epithelial breast carcinoma cell line MDAMB-435; test: Antiproliferative activity, growth of MDAMB-435 cells (MTT); assay type: cell-based; settings: Homo sapiens, MDA-MB-435, 120 h, MDAMB435, day 5 post-drug addition, 0.1% DMSO, * = average of two separate experiments
Procedure: (§1) The epithelial breast carcinoma cell line, MDAMB-435, and the colon carcinoma cell line, SW480, were purchased from ATCC (American Type Cell Culture Collection) and were grown in culture in medium as recommended by ATCC. For analysis of the effect of various compounds on growth of these cells, the cells were plated at a concentration of 1500 cells/well in a 96 well tissue culture plate ("test plate"). The day after the cells were plated, the compounds to be analyzed were dissolved in 100% DMSO (dimethyl sulfoxide) to yield at 10 mM stock solution. Each compound was diluted in H2 O to 1 mM and was added to triplicate wells in the first row of a 96 well master plate which contains medium to yield a final concentration of 40 μM. The compounds were then serially diluted in medium in the "master plate". The diluted compound(s) were then transferred to test plates containing cells. A row of vehicle "control cells" received DMSO. The final concentration of DMSO in each well was 0.1%. At day 5 post-drug addition, the plates containing MDA-MB435 cells were analyzed as follows. Plates containing SW480 cells were analyzed at day 7 post drug addition as follows.
(§2) MTT (3-(4-5methylthiazole-2-yl)-2,5-diphenyl tetrazolium bromide; thiazolyl blue) was added to each well to yield a final concentration of 1 mg/ml. The plate was then incubated at 37° C. for 21/2-3 hours. The MTT containing medium was then removed and 50 μl of 100% ethanol was added to each well to dissolve the formazan. The absorbences were then read using an automated plate reader (Bio-tek microplate reader). IC50 's were calculated using the Reed and Munsch equation, see Am. J. Hygiene Vol. 27 pgs. 493-497, 1938.

[2] = system: colon carcinoma cell line SW480; test: Antiproliferative activity, growth of SW480 cells (MTT); assay type: cell-based; settings: Homo sapiens, 168 h, day 7 post drug addition, 0.1% DMSO, * = average of two separate experiments
Procedure: as §1, §2

| Structure (SMILES) | IC50 [1] [nM] | IC50 [2] [nM] |
| --- | --- | --- |
| Cn1cc(C2=C(c3cn(C)c4cc(C#N)ccc34)C(=O)NC2=O)c2ccccc21 [Ex 1, 1-methyl-3-[4-(1-methyl-1H-indol-3-yl)-2,5-dioxo-2,5-dihydro-1H-pyrrol-3-yl]-1H-indole-6-carbonitrile] | 30 | 8 |
| CC(=O)OCc1ccc2c(C3=C(c4cn(C)c5ccccc45)C(=O)NC3=O)cn(C)c2c1 [Ex 3, Acetic acid 1-methyl-3-[4-(1-methyl-1H-indol-3-yl)-2,5-dioxo-2,5-dihydro-1H-pyrrol-3-yl]-1H-indol-6-yl methyl ester] | 300 | 830 |
| Cn1cc(C2=C(c3cn(C)c4cc(CO)ccc34)C(=O)NC2=O)c2ccccc21 [Ex 5, 3-(6-hydroxymethyl-1-methyl-1H-indol-3-yl)-4-(1-methyl-1H-indol-3-yl)pyrrole-2,5-dione] | 420 | 350 |
| Cn1cc(C2=C(c3cn(C)c4cc(C(N)=O)ccc34)C(=O)NC2=O)c2ccccc21 [Ex 6, 1-Methyl-3-[4-(1-methyl-1H-indol-3-yl)-2,5-dioxo-2,5-dihydro-1H-pyrrol-3-yl]-1H-indole-6-carboxylic acid amide] | 700 | – |

Next, values leading:

| IC50 [1] [nM] | IC50 [2] [nM] | Structure (SMILES) |
| --- | --- | --- |
| 10 | 10 | COC(=O)c1ccc2c(C3=C(c4cn(C)c5ccccc45)C(=O)NC3=O)cn(C)c2c1 [Ex 4a, 1-methyl-3-[4-(1-methyl-1H-indol-3-yl)-2,5-dioxo-2,5-dihydro-1H-pyrrol-3-yl]-1H-indole-6-carboxylic acid methyl ester] |
| 32 | 54 | Cn1cc(C2=C(c3cn(C)c4cc(C=O)ccc34)C(=O)NC2=O)c2ccccc21 [Ex 4b, 1-methyl-3-[4-(1-methyl-1H-indol-3-yl)-2,5-dioxo-2,5-dihydro-1H-pyrrol-3-yl]-1H-indole-6-carboxaldehyde] |
| 70 | 110 | COCc1ccc2c(C3=C(c4cn(C)c5ccccc45)C(=O)NC3=O)cn(C)c2c1 [Ex 4c, 3-(6-Methoxymethyl-1-methyl-1H-indol-3-yl)-4-(1-methyl-1H-indol-3-yl)-pyrrole-2,5-dione] |
